Entries after “also recorded” stand apart in the source; their conditions may differ.
Tests used:
recombinant human LDHA = recombinant human LDHA (Homo sapiens, UniProt P00338); assay: recombinant human LDHA enzyme assay (lactate to pyruvate, NADH via diaphorase/resazurin)
Snu398 cells [1] = assay: Fructose-1,6-bisphosphate (FBP) analysis; assay type: cell-based, human; conditions: Snu398, 10 μM, 24 h R10 or 6 h low glucose
Description: Treatment was carried out for 24 h in R10 or for 6 h in low glucose medium. At the end of this treatment, cells were washed, lifted by trypsinization, counted, and cell pellets were submitted for analysis of FBP to Apredica, Inc.

Snu398 cells [2] = assay: Compound cellular permeability assay, cytosolic extract; assay type: in vitro ADME, human; conditions: Snu398 treated with 1 μM for 1.5 h, LC/MS/MS
Description: The medium was removed, cells were washed in phosphate-buffered saline (PBS), and cytosolic extracts were prepared by solubilization in Qproteome lysis buffer (Qiagen, Valencia, CA). […] The medium was removed, cells were washed in PBS and solubilized in 50:50 mixture of methanol and acetonitrile. Compound concentration in the cytosolic or whole-cell extract was determined by LC/MS/MS analysis. An Acquity UPLC system (Waters Inc., Milford, MA) was coupled to an API 4000 or API 5000 triple-quad mass spectrometer (Applied Biosystems). […] Compound concentration in cells was determined by counting the number of cells in sample wells and assuming 3 pL/cell volume.

Cyclooxygenase 2 = Cyclooxygenase 2 (Homo sapiens, UniProt P35354); assay: Cyclooxygenase 2 ANT; assay type: biochemical; conditions: antagonist; read-out: pIC50 Cyclooxygenase 2 ANT (converted)
From the text: (§1) ANT = antagonist (pIC50), AG = agonist (pEC50). pIC50 and pEC50 are the negative logarithms10 of IC50 and EC50, respectively. Click here for file

Serotonin Receptor 5HT2C = target: T1, Serotonin Receptor 5HT2C (Homo sapiens, UniProt P28335); assay: Serotonin Receptor 5HT2C AG; conditions: agonist; read-out: pEC50 Serotonin Receptor 5HT2C AG (converted)
T1 sequence (P28335 33-458): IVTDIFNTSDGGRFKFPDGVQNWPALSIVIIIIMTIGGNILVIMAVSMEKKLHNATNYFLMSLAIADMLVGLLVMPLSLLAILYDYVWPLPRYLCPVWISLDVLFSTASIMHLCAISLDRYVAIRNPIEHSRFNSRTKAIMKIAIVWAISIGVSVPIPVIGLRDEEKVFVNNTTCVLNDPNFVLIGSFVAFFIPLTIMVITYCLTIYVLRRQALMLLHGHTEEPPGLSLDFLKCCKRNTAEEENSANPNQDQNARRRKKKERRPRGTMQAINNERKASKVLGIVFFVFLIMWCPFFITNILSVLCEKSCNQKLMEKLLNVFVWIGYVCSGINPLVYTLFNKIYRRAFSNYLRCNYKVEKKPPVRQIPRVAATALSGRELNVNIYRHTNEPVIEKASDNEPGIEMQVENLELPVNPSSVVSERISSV
From the text: as §1

[3] = tested on: permeabilized HepG2 cells; assay: Seahorse XF96 permeabilized cells (mitochondrial function); assay type: cell-based, human
Description: HepG2 cells were seeded overnight in DMEM, 10% FBS, at 16,000 cells/well in an XF96 V3 PET plate. The next day, the medium was removed, and the wells were rinsed and filled with mitochondrial assay solution (MAS: 70 mM sucrose, 220 mM mannitol, 10 mM KH2PO4, 5 mM MgCl2, 2 mM HEPES, 1.0 mM EGTA) containing 10 mM pyruvate/10 mM malate/4 mM ADP and 2 nM XF Plasma Membrane Permeabilizer (PMP) (Seahorse Biosciences). […]. OCR and ECAR readings were determined for three cycles (two minutes mixing, two minutes measuring) after each compound addition.

cancer cell lines = assay: Lactate production assay, panel of cancer cell lines; conditions: Homo sapiens, read-out: lactate production EC50 across cell lines
MDA-MB-453 cells = assay: Lactate production in normoxia/hypoxia, MDA-MB-453 (YSI analyzer); conditions: Homo sapiens, MDA-MB-453, 2 h, read-out: lactate production EC50 in hypoxia
Snu398 cells [4] = assay: Compound cellular permeability assay, whole-cell extract; assay type: in vitro ADME, human; conditions: Snu398 treated with 1 μM for 1.5 h
Description: Compound cellular permeability assays For cytosolic permeability assay, twelve million Snu398 cells were allowed to attach overnight and treated with DMSO control or 1 µM Compound 2 for 1.5 h in 1.7 mM glucose medium. The medium was removed, cells were washed in phosphate-buffered saline (PBS), and cytosolic extracts were prepared by solubilization in Qproteome lysis buffer (Qiagen, Valencia, CA). For whole-cell permeability assay, 75,000 Snu398 cells/well were plated in 96-well plates and treated with DMSO control or 1 µM compounds for 1.5h in low glucose medium. The medium was removed, cells were washed in PBS and solubilized in 50:50 mixture of methanol and acetonitrile. Compound concentration in the cytosolic or whole-cell extract was determined by LC/MS/MS analysis. An Acquity UPLC system (Waters Inc., Milford, MA) was coupled to an API 4000 or API 5000 triple-quad mass spectrometer (Applied Biosystems). […] Compound concentration in cells was determined by counting the number of cells in sample wells and assuming 3 pL/cell volume.

Snu398 cells [5] = assay: 13C NMR spectroscopy of glucose consumption and lactate production, Snu398; assay type: cell-based, human
Description: After this pre-incubation, cells were washed in PBS and resuspended in 400 μL of glucose-free RPMI supplemented with 10% deuterium oxide, 11 mM D-(1,6-^13C2)glucose, and LDHA inhibitor or DMSO. An additional 600 μL of the same medium was gently added to top off the resuspended cells. Five mm NMR tubes with reduced sample depth (Shigemi Inc, Allison Park, PA, USA) were used to ensure that the cells remain inside the active volume of the receiver coil of the probe. […] . Prior to Fourier transformation, sensitivity and resolution were enhanced by applying an exponential line-broadening of 1 Hz over the first 32,000 data points and then zero filled to 256,000 data points. Spectra were analyzed using in-house data analysis software.

Cyclooxygenase 2, sequence (P35354 18-604, species assumed): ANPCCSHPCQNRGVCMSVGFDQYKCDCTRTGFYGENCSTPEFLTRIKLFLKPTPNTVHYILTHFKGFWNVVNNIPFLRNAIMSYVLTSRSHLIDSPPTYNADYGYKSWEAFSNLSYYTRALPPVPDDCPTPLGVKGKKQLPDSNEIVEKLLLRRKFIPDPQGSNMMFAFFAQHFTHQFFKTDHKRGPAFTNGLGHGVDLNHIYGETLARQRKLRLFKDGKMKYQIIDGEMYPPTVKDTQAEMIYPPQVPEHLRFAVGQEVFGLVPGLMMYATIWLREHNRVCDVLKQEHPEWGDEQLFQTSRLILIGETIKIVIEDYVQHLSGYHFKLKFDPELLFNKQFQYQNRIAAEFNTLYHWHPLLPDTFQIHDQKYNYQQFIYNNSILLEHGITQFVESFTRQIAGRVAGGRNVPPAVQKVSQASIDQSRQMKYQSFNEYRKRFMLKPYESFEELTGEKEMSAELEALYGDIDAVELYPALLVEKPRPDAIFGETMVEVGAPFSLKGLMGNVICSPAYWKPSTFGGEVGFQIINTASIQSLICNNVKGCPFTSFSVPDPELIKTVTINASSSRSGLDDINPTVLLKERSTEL

Structure (SMILES): COc1ncc(-c2ccc3c(Nc4cc(C(=O)O)cc(C5CCCC5)c4)c(S(=O)(=O)NC4CC4)cnc3c2)c(OC)n1 [Compound 2]
- IC50 (recombinant human LDHA): 0.016 ± 0.007 µM
- intracellular fructose-1,6-bisphosphate (FBP) level (Snu398 cells [1]): increase intracellular levels of fructose-1,6-bisphosphate (FBP)
- apparent intracellular concentration (cytosolic extract) (Snu398 cells [2]): 18 µM
- IC50 (Cyclooxygenase 2): 63.1 µM
- EC50 (Serotonin Receptor 5HT2C): 39.8 µM

Structure (SMILES): COc1ncc(-c2ccc3c(Nc4cc(Oc5cc(F)cc(F)c5)cc(C(=O)O)c4)c(S(=O)(=O)NC4CC4)cnc3c2)c(OC)n1 [Compound 1]
- concentrations with no changes in OCR or ECAR ([3]; permeabilized HepG2, pyruvate/malate/ADP): up to 3 μM
- doses with direct mitochondrial effects (reduced mitochondrial respiration) ([3]; permeabilized HepG2, decreased OCR, increased ECAR): ≥ 10 µM
- EC50 (cancer cell lines): ≥ 0.4 µM
- EC50 (MDA-MB-453 cells): 10 µM
- intracellular fructose-1,6-bisphosphate (FBP) level (Snu398 cells [1]): increase intracellular levels of fructose-1,6-bisphosphate (FBP); also recorded: Increase in fructose-1,6-bisphosphate (FBP)
- apparent intracellular concentration versus medium (Snu398 cells [4]): higher apparent intracellular concentrations than that of the medium
- (3-13C)lactate production (Snu398 cells [5]; Snu398, 10 μM): significantly slowed down lactate production
- D-(1,6-13C2)glucose consumption (Snu398 cells [5]; Snu398 versus HepG2, 10 μM): only affected glucose consumption in Snu398 cells
- IC50 (Cyclooxygenase 2): 100 µM
- EC50 (Serotonin Receptor 5HT2C): 39.8 µM

Source: publication PMC4178217, “Quinoline 3-sulfonamides inhibit lactate dehydrogenase A and reverse aerobic glycolysis in cancer cells” (Cancer & Metabolism, 2013)
